Measurements: patent US9018383B2, “Acylamino-substituted cyclic carboxylic acid derivatives and their use as pharmaceuticals” (Sanofi, priority 2009, dated 2015)

Biological target: human Edg-2 receptor (Homo sapiens, UniProt Q92633)
Test: Determination of Edg-2 receptor inhibition by FLIPR measurements (LPA-mediated calcium liberation)
Format: cell-based
Conditions: CHO cells overexpressing human Edg-2 receptor, LPA 100 nM, fluo-4 calcium fluorescence; read-out: Inhibitory concentrations IC50 for inhibition of the Edg-2 receptor
Method in brief: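 CHO cells stably overexpressing human Edg-2, loaded with fluo-4 AM, were pre-incubated ~5 min with compound (≤0.3% DMSO), then stimulated with 100 nM LPA 18:1 in HBSS/HEPES/probenecid, pH 7.5. Peak calcium fluorescence over ~3 min, baseline-corrected, versus DMSO gave % inhibition; IC50 from triplicates.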

Sequence of human Edg-2 receptor (Q92633 whole entry): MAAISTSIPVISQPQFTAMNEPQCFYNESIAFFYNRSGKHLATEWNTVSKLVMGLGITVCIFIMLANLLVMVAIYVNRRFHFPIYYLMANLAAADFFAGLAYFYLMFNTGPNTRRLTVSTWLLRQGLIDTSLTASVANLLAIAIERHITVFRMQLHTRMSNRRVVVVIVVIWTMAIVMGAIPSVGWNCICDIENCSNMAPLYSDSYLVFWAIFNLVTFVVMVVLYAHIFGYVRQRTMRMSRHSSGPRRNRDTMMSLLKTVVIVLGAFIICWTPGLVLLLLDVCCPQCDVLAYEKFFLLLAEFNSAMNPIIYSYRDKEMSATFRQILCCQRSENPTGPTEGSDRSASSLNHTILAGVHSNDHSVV

Row | IC50 [nM] | SMILES
1 | < 100 | CC[C@H]1CC[C@](NC(=O)c2cnc(OC)c(OCCc3ccccc3)c2)(C(=O)O)CC1 [Example 358, cis-4-Ethyl-1-[(6-methoxy-5-phenethyloxy-pyridine-3-carbonyl)-amino]-cyclohexanecarboxylic acid]
2 | < 100 | CC[C@H]1CC[C@](NC(=O)c2cnc(OC)c(-c3ccc(F)c(F)c3)c2)(C(=O)O)CC1 [Example 359, cis-1-{[5-(3,4-Difluoro-phenyl)-6-methoxy-pyridine-3-carbonyl]-amino}-4-ethyl-cyclohexanecarboxylic acid]
3 | < 100 | CC[C@H]1CC[C@](NC(=O)c2cnc(OC)c(-c3cc(F)cc(F)c3)c2)(C(=O)O)CC1 [Example 360, cis-1-{[5-(3,5-Difluoro-phenyl)-6-methoxy-pyridine-3-carbonyl]-amino}-4-ethyl-cyclohexanecarboxylic acid]
4 | < 100 | CC[C@@H]1C[C@]1(NC(=O)c1cnc(OC)c(OCCc2cccc(Cl)c2)c1)C(=O)O [Example 361, (1R,2R)-1-({5-[2-(3-Chloro-phenyl)-ethoxy]-6-methoxy-pyridine-3-carbonyl}-amino)-2-ethyl-cyclopropanecarboxylic acid]
5 | < 100 | CC[C@H]1CC[C@@](NC(=O)c2cc(F)c(OCCO)c(-c3cccc(C(F)(F)F)c3)c2)(C(=O)O)CC1 [Example 362, trans-4-Ethyl-1-{[5-fluoro-6-(2-hydroxy-ethoxy)-3′-trifluoromethyl-biphenyl-3-carbonyl]-amino}-cyclohexanecarboxylic acid]
6 | 100 to 1000 | COc1ccc(C(=O)NC2(C(=O)O)CCCCCC2)cc1OCCc1cccc(C(F)(F)F)c1 [Example 363]
7 | < 100 | COc1ccc(C(=O)NC2(C(=O)O)CCCCCC2)cc1OCCc1ccccc1Cl [Example 364]
8 | 100 to 1000 | COc1ccc(C(=O)NC2(C(=O)O)CCCCCC2)cc1OCCc1cccc(F)c1 [Example 365]
9 | 100 to 1000 | COc1ccc(C(=O)NC2(C(=O)O)CCC(C(C)(C)C)CC2)cc1OCCc1cccc(C)c1 (stereo not shown) [Example 366]
10 | 100 to 1000 | COc1ccc(C(=O)NC2(C(=O)O)CCCC(C)C2)cc1OCCc1cccc(C)c1 (stereo not shown) [Example 367]
11 | 100 to 1000 | COc1ccc(C(=O)NC2(C(=O)O)CC2)cc1OCCc1cccc(C)c1 [Example 368]
12 | 100 to 1000 | COc1ccc(C(=O)NC2(C(=O)O)CCC(C(F)(F)F)CC2)cc1OCCc1cccc(C)c1 (stereo not shown) [Example 369]
13 | < 100 | COc1ccc(C(=O)NC2(C(=O)O)CCC(C(C)C)CC2)cc1OCCc1cccc(C)c1 (stereo not shown) [Example 370]
14 | 100 to 1000 | COc1ccc(C(=O)NC2(C(=O)O)CCC(C(C)(C)C)CC2)cc1OCCc1cccc(C)c1 (stereo not shown) [Example 371]
15 | 100 to 1000 | COc1ccc(C(=O)NC2(C(=O)O)CCCC(C)C2)cc1OCCc1cccc(C)c1 (stereo not shown) [Example 372]
16 | 100 to 1000 | COc1ccc(C(=O)NC2(C(=O)O)CCC(C)C2)cc1OCCc1cccc(C)c1 (stereo not shown) [Example 373]
17 | < 100 | COc1ccc(C(=O)NC2(C(=O)O)CCC(OC)CC2)cc1OCCc1cccc(C)c1 (stereo not shown) [Example 374]
18 | < 100 | COc1ncc(C(=O)N[C@]2(C(=O)O)CC[C@H](C(F)(F)F)CC2)cc1-c1cc(F)c(F)c(F)c1 [Example 375]
19 | < 100 | COc1ncc(C(=O)N[C@]2(C(=O)O)CC[C@H](C(F)(F)F)CC2)cc1-c1cccc(C(F)(F)F)c1 [Example 376]
20 | < 100 | COc1ncc(C(=O)N[C@]2(C(=O)O)CC[C@H](C(F)(F)F)CC2)cc1-c1cccc(C(F)(F)F)c1F [Example 377]
21 | < 100 | COc1ncc(C(=O)N[C@]2(C(=O)O)CC[C@H](C(F)(F)F)CC2)cc1-c1cccc(Cl)c1Cl [Example 378]
22 | < 100 | COc1ncc(C(=O)N[C@]2(C(=O)O)CC[C@H](C(F)(F)F)CC2)cc1-c1cccc(OC(F)(F)F)c1 [Example 379]
23 | < 100 | COc1ncc(C(=O)N[C@]2(C(=O)O)CC[C@H](C(F)(F)F)CC2)cc1-c1cc(Cl)cc(C(F)(F)F)c1 [Example 380]

Row | IC50 [nM] | SMILES
24 | < 100 | CC[C@H]1CC[C@](NC(=O)c2cc(F)c(OCCO)c(-c3ccc(OC)c(Cl)c3)c2)(C(=O)O)CC1 [Example 381]
25 | < 100 | CC[C@H]1CC[C@](NC(=O)c2cc(F)c(OCCO)c(-c3cccc(OC(F)(F)F)c3)c2)(C(=O)O)CC1 [Example 382]
26 | < 100 | CC[C@H]1CC[C@](NC(=O)c2cc(F)c(OCCO)c(-c3ccc(F)c(F)c3)c2)(C(=O)O)CC1 [Example 384]
27 | < 100 | CC[C@H]1CC[C@](NC(=O)c2cc(F)c(OCCO)c(-c3cc(F)cc(F)c3)c2)(C(=O)O)CC1 [Example 385]
28 | < 100 | CC[C@H]1CC[C@@](NC(=O)c2ccc(OCCO)c(-c3cccc(C(F)(F)F)c3)c2)(C(=O)O)CC1 [Example 386, trans-4-Ethyl-1-{[6-(2-hydroxy-ethoxy)-3′-trifluoromethyl-biphenyl-3-carbonyl]-amino}-cyclohexanecarboxylic acid]
29 | < 100 | COc1c(F)cc(C(=O)N[C@]2(C(=O)O)CC[C@@H](C)CC2)cc1OCCc1cccc(CCO)c1 [Example 392, trans-1-(3-Fluoro-5-{2-[3-(2-hydroxy-ethyl)-phenyl]-ethoxy}-4-methoxy-benzoylamino)-4-methyl-cyclohexanecarboxylic acid]
30 | < 100 | COc1c(F)cc(C(=O)NC2(C(=O)O)CCCCCC2)cc1OCCc1cccc(CCO)c1 [Example 393, 1-(3-Fluoro-5-{2-[3-(2-hydroxy-ethyl)-phenyl]-ethoxy}-4-methoxy-benzoylamino)-cycloheptanecarboxylic acid]
31 | < 100 | CC[C@H]1CC[C@@](NC(=O)c2cc(F)c(OC)c(OCCc3cccc(CCO)c3)c2)(C(=O)O)CC1 [Example 394, trans-4-Ethyl-1-(3-fluoro-5-{2-[3-(2-hydroxy-ethyl)-phenyl]-ethoxy}-4-methoxy-benzoylamino)-cyclohexanecarboxylic acid]
32 | < 100 | CC[C@H]1CC[C@@](NC(=O)c2cnc(OC)c(OCCc3cccc(C)c3)c2)(C(=O)O)CC1 [Example 395, trans-4-Ethyl-1-{[6-methoxy-5-(2-m-tolyl-ethoxy)-pyridine-3-carbonyl]-amino}-cyclohexanecarboxylic acid]
33 | < 100 | CC[C@H]1CC[C@](NC(=O)c2cnc(OC)c(OCCc3cccc(C)c3)c2)(C(=O)O)CC1 [Example 396, cis-4-Ethyl-1-{[6-methoxy-5-(2-m-tolyl-ethoxy)-pyridine-3-carbonyl]-amino}-cyclohexanecarboxylic acid]
34 | < 100 | CC[C@H]1CC[C@@](NC(=O)c2cnc(OC)c(OCCc3cccc(Cl)c3)c2)(C(=O)O)CC1 [Example 397, trans-1-({5-[2-(3-Chloro-phenyl)-ethoxy]-6-methoxy-pyridine-3-carbonyl}-amino)-4-ethyl-cyclohexanecarboxylic acid]
35 | < 100 | CC[C@H]1CC[C@@](NC(=O)c2cnc(OC)c(OCCc3cccc(OC(F)(F)F)c3)c2)(C(=O)O)CC1 [Example 398, trans-4-Ethyl-1-({6-methoxy-5-[2-(3-trifluoromethoxy-phenyl)-ethoxy]-pyridine-3-carbonyl}-amino)-cyclohexanecarboxylic acid]
36 | < 100 | CC[C@H]1CC[C@](NC(=O)c2cnc(OC)c(OCCc3cccc(OC(F)(F)F)c3)c2)(C(=O)O)CC1 [Example 399, cis-4-Ethyl-1-({6-methoxy-5-[2-(3-trifluoromethoxy-phenyl)-ethoxy]-pyridine-3-carbonyl}-amino)-cyclohexanecarboxylic acid]
37 | < 100 | COc1ncc(C(=O)N[C@]2(C(=O)O)CC[C@H](C)CC2)cc1OCCc1ccccc1 [Example 400, cis-1-{[6-Methoxy-5-(2-phenyl-ethoxy)-pyridine-3-carbonyl]-amino}-4-methyl-cyclohexanecarboxylic acid]
38 | < 100 | COc1ncc(C(=O)NC2(C(=O)O)CCCCCC2)cc1OCCc1cccc(Cl)c1 [Example 401, 1-({5-[2-(3-Chloro-phenyl)-ethoxy]-6-methoxy-pyridine-3-carbonyl}-amino)-cycloheptanecarboxylic acid]
39 | < 100 | COc1ncc(C(=O)N[C@]2(C(=O)O)CC[C@H](C(F)(F)F)CC2)cc1OCCc1cccc(C)c1 [Example 402, cis-1-{[6-Methoxy-5-(2-m-tolyl-ethoxy)-pyridine-3-carbonyl]-amino}-4-trifluoromethyl-cyclohexanecarboxylic acid]
40 | < 100 | CC[C@H]1CC[C@](NC(=O)c2ccc(OC)c(OCCc3cccc(OC(F)(F)F)c3)c2)(C(=O)O)CC1 [Example 403, cis-4-Ethyl-1-{4-methoxy-3-[2-(3-trifluoromethoxy-phenyl)-ethoxy]-benzoylamino}-cyclohexanecarboxylic acid]
41 | < 100 | COc1ccc(C(=O)N[C@]2(C(=O)O)CC[C@H](C)CC2)cc1OCCc1cc(Cl)ccc1F [Example 404, cis-1-{3-[2-(5-Chloro-2-fluoro-phenyl)-ethoxy]-4-methoxy-benzoylamino}-4-methyl-cyclohexanecarboxylic acid]
42 | < 100 | COc1ccc(C(=O)N[C@]2(C(=O)O)CC[C@H](C)CC2)cc1OCCc1cc(OC(F)(F)F)ccc1F [Example 405, cis-1-{3-[2-(2-Fluoro-5-trifluoromethoxy-phenyl)-ethoxy]-4-methoxy-benzoylamino}-4-methyl-cyclohexanecarboxylic acid]
43 | 100 to 1000 | COc1ccc(C(=O)N[C@]2(C(=O)O)CC[C@H](C)CC2)cc1OCCc1ccccc1 [Example 406, cis-1-(4-Methoxy-3-phenethyloxy-benzoylamino)-4-methyl-cyclohexanecarboxylic acid]
44 | < 100 | CC[C@H]1CC[C@](NC(=O)c2cnc(OC)c(-c3ccc(F)cc3)c2)(C(=O)O)CC1 [Example 407]
45 | 100 to 1000 | CC[C@H]1CC[C@@](NC(=O)c2cnc(OC)c(-c3ccc(Cl)c(C(F)(F)F)c3)c2)(C(=O)O)CC1 [Example 408]
46 | < 100 | CC[C@H]1CC[C@](NC(=O)c2cnc(OC)c(-c3cccc(F)c3)c2)(C(=O)O)CC1 [Example 409]
